Test results as given in patent publication USRE35801E, “Prophylactic and therapeutic composition for circulatory disorders and method of treatment” (priority 1985, dated 1998).
Entries after “also recorded” stand apart in the source; their conditions may differ.

Experiments:
[1] = system: lipid peroxidation (brain homogenate); experiment: Inhibitory action of lipid peroxidation in brain homogenate (TBA value); format: biochemical; conditions: inhibition of lipid peroxidation, rat brain homogenate, 37° C., 30 minutes
Procedure: (1) Inhibitory action of lipid peroxidation (a) Preparation of brain homogenate By use of Wister-strain male rat, brain homogenate was prepared following the procedure as described below. […] Next, a brain perfusion was conducted through the tube with ice-cooled 50 mM phosphate-buffered physiological saline (pH 7.4) hereinafter referred to as "PBS"), and the whole brain was extirpated. After removal of cerebellum, the wet weight of cerebrum was measured and, with addition of 9-fold amount of PBS, it was broken by a Teflon homogenizer in ice-water to be homogenized. After the brain homogenate was subjected to centrifugation at 4° C. at 2200 rpm for 10 minutes, 0.3 ml of the supernatant was apportioned into a light-shielding test tube equipped with a ground stopper, to provide a brain homogenate for evaluation of medicine. (b) Evaluation of test medicine To the brain homogenate produced in (a), 0.6 ml of PBS and 10 μl of ethanolic solution of a test medicine were added (to a final concentration of 500 μM or a concentration at a common ratio of 3 between 0.3 and 100 μm), and the mixture was heated in a warm bath at 37° C. for 30 minutes. […] Also, the same operation was performed by addition of 10 μl of ethanol (blank) in place of 10 μl ethanolic solution of the test medicine for measurement of blank. […] After shaking for about 30 seconds, the mixture was subjected to centrifugation at 3000 rpm for 10 minutes, and the supernatant was provided as a sample for measurement of peroxidized lipid.

[2] = system: drowsy pattern of electroencephalogram induced by phenobarbital or pentobarbital sodium salt; experiment: Antagonistic action against drowsy pattern of electroencephalogram induced by phenobarbital or pentobarbital sodium salt; format: in vivo, Wistar-strain male rat; conditions: Rattus norvegicus; intravenous, sodium salt; drowsy EEG after PHB 30 mg/kg or PBT 5 mg/kg; read-out: Antagonistic action at dose or higher
Procedure: (2) Antagonistic action against drowsy pattern of so electroencephalogram induced by phenobarbital or pentobarbital sodium salt
A Wistar-strain male rat weighing about 400 g was intramasculary administered with 0.6 mg of d-tubocurarine to be immobilized and, while maintaining the rectal temperature at 37° to 38° C. under artificial respiration, the electroencephalogram of the left cerebral frontal cortex was measured and recorded. Also, within the left femoral artery and vein, cannulas for measurement of artery pressure and for administration of medicine were placed, respectively.
As the active ingredient of the present invention, sodium salt of the compound represented by Formula (I) was used and the respective doses of said active ingredient and 30 mg/kg of phenobarbital sodium salt (produced by Iwaki Seiyaku K.K.) (hereinafter called "PHB") or 5 mg/kg of pentobarbital sodium salt (hereinafter called PBT) were each dissolved in physiological saline and administered intravenously in a liquid amount of 1 ml/kg.
The action of the active ingredient of the present invention affecting the cortex electroencephalogram after PHB or PBT administration was investigated as follows; Namely, at the time of 5 minutes or later after PHB or PBT administration when increase of the slow-wave component can be clearly recognized on electroencephalogram, 1, 3, 10, 30 and 100 mg/kg of the active ingredient were administered. To the control group 1 ml/kg of physiological saline was intravenously administered.
Recording and analysis of electroencephalogram were continuously drawn together with artery pressure, heart rate and rectal temperature on the recorder through a multi-purpose monitoring recording device (model RM-85, produced by Nippon Koden K.K.). At the same time, electroencephalogram was recorded in data recorder (model A-65, produced by Sony K.K.), and compressed spectral array analysis was conducted by means of a computer for medical data processing (ATAC-450, produced by Nippon Koden K.K.).

[3] = system: cerebral ischemia recirculation model; experiment: Protective action in cerebral ischemia recirculation model; format: in vivo, Wistar-strain male rat; set-up: key to Presence of electroencephalogram restoration / Judgement of action: The case when restoration of electroencephalogram is judged as +; case when not recognized as -; conditions: 10 mg/kg into duodenum; 10 min cerebral ischemia (Table 3)
Procedure: (3) Protective action in cerebral ischemia recirculation model
A Wistar-strain male rat weighing about 400 g was administered intramascularly with 0.6 mg of di-tubocurarine to be immobilized and, after a trachea cannulation, the head portion was fixed under artificial respiration on a stereotaxic device. The head skin was cut open, cranial bone was bored, and then bipolar electrode for lead-out of electroencephalogram were placed on the surface of the subdural left frontal cerebral cortex. After the electrode was fixed with the cranial bone by use of dental cement, the animal was held on its back. Next, a cannula for measurement of systemic pressure was placed within the left femoral artery, and a cannula for additional administration of d-tubocurarine within the left femoral vein, respectively. The heart rate was measured and recorded by driving a heart rate meter with the artery wave.
After blood pressure, heart rate and various parameters of electroencephalogram were stabilized, 10 mg/kg of the active ingredient of the present invention prepared in a suspension so as to give 1 ml/kg in 1% tragacanth gum solution was administered directly into duodenum […]. To the control group, only the 1% tragacanth gum solution of the same volume was administered similarly.
Ten to twenty minutes after administration of the medicine, while monitoring the electroencephalogram, blood pressure and heart rate on a multi-purpose monitoring recording device (RM-85 model, produced by Nippon Koden K.K.), the following operations were performed according to the methods shown below for cerebral ischemia loading.
First, ribs were set free at the left costicartilage end to open the chest. Next, cerebral blood flow was blocked for ten minutes by obstructing the left common carotid artery and the left subclavian artery exposed at the aorta originating portion at the same time, and then the brachiocephalic trunk by use of artery clips 30 minutes after administration of the medicine.
Recirculation of cerebral blood flow was effected by releasing at the same time the two artery clips mounted on the respective sites as mentioned above.
The protective action of the medicine for the disorder after recirculation of cerebral ischemia was examined by the presence of restoration of electroencephalogram, and survival time of animal after the recirculation.
During the experiment, the rectal temperature of the animal was maintained at 37° to 38° C. by use of a warming mat. Also, the rectal temperature was continuously drawn on the recorder together with electroencephalogram, femoral artery pressure and heart rate.

[4] = system: electroencephalogram under normal state; conditions: deemed to be a side action in clinic; cited from earlier work
[5] = system: lipid peroxidation by active oxygen; conditions: cited from earlier work
[6] = cited from earlier work
central nervous system = conditions: in vivo; cited from earlier work

| Compound | IC50 [1] [µM] | minimal effective dose [2] [mg/kg] | Presence of electroencephalogram restoration [3] | inhibition of lipid peroxidation by active oxygen [5] | further results |
| --- | --- | --- | --- | --- | --- |
| CCCC1=NN(c2ccccc2)C(=O)C1 [Compound 25, 1-Phenyl-3-propyl-2-pyrazolin-5-one] | 5.9 | ≥ 10 | + |  |  |
| CC1=NN(c2ccccc2)C(=O)C1CC(C)C (stereo not drawn) [Compound 31, 4-Isobutyl-3-methyl-1-phenyl-2-pyrazolin-5-one] | 5.7 | ≥ 10 | + |  |  |
| NC(=O)[C@@H]1CCCN1C(=O)[C@H](Cc1cnc[nH]1)NC(=O)[C@@H]1CCC(=O)N1 [TRH, L-pyrroglutamyl-L-histidyl-L-prolineamide] |  |  |  |  | action against electroencephalogram under normal state [4]: exhibites an action |
| COC1=C(OC)C(=O)C(CCCCCCCCCCO)=C(C)C1=O [idebenone] |  |  |  | can inhibit lipid peroxidation by active oxygen | solubilizing in water [6]: difficulty in solubilizing in water |
| CCN(CC)Cc1nccn1-c1ccc([N+](=O)[O-])cc1C(=O)c1ccccc1Cl [nizofenone] |  |  |  | can inhibit lipid peroxidation by active oxygen | central nervous system depressant activity (central nervous system): potent central nervous system depressant activity |
| vitamin E |  |  |  | can inhibit lipid peroxidation by active oxygen; also recorded: only unsatisfactory action |  |
